Converted amounts (≈) assume the structure as drawn.
Assays:
Assay type in all cases: cell-based, human
[1] = test system: THP-1 Acute myeloid leukemia cells; assay: Chemotherapeutic Sensitivity Assay (Gus and/or LacZ output), batch infection with GLV-1h68, Example 3; conditions: for MIC VV / LacZ/infection inhibition: THP-1, GLV-1h68 MOI 10, 24 hours, visual; for MIC VV: β-glucuronidase (Gus) output; for LacZ/infection inhibition: β-galactosidase output
[2] = test system: THP-1 cells; assay: MTT cell viability assay, Example 3; conditions: for MIC MTT / concentration at which cell death / inhibition was observed in the MTT assay: THP-1, approximately 48 hours; for MIC MTT: visual; for concentration at which cell death / inhibition was observed in the MTT assay: text of Example 3
[3] = test system: HL-60 cells
[4] = test system: THP-1 cells
[5] = test system: KG1a cells
[6] = test system: HL-60 cells; assay: Cell viability and growth assay (MTT reduction), Example 2; conditions: HL-60, approximately 48 hours, visual assessment
[7] = test system: THP-1 cells; assay: as above; conditions: THP-1, approximately 48 hours, visual assessment
[8] = test system: KG1a cells; assay: as above; conditions: approximately 48 hours, visual assessment
[9] = THP-1, maximal concentration used
[10] = THP-1, next lowest concentration
[11] = THP-1, GLV-1h68, 24 hours, text of Example 3

SMILES	MIC VV [1] [µM]	MIC MTT [2] [µM]	concentration at which inhibition of β-glucuronidase expression was observed [1, 11]	LacZ/infection inhibition [1] [µM]	concentration at which cell death / inhibition was observed in the MTT assay [2]	further results
O=c1[nH]cc(F)c(=O)[nH]1 [5-Fluorouracil, 5-fluorouracil]	1.9 (≈ 0.247 µg/mL)	1.9 (≈ 0.247 µg/mL)	–	–	–	concentration giving very pale blue/pink color in the β-glucuronidase assay, indicating partial cell killing ([1]; THP-1, highest drug concentration tested): 1.9 µM; MTT assay observation [2, 9]: cell death; MTT assay observation [2, 10]: only slight cell death
Nc1ccn([C@@H]2O[C@H](CO)[C@@H](O)[C@@H]2O)c(=O)n1 [Ara-C, cytosine arabinoside]	1 (≈ 0.243 µg/mL)	1 (≈ 0.243 µg/mL)	≥ 1 µM	>1000	≥ 1 µM	β-galactosidase expression (P7.5k early/late promoter) in presence of Ara-C ([3]; HL-60, GLV-1h68 MOI 10, 1 nM-1 mM Ara-C, 24 hours, X-gal, visual assessment): equally robust in the presence or absence of Ara-C; effect on β-glucuronidase expression (P11k late promoter) ([3]; HL-60, GLV-1h68 MOI 10, 1 nM-1 mM Ara-C, 24 hours, X-gluc, visual assessment): dose-dependent inhibition; concentration at which β-glucuronidase expression was undetectable by eye (complete abrogation of viral late transcription) ([3]; HL-60, GLV-1h68 MOI 10, 24 hours, printed as 1 mM to 1 μM): ≥ 1 µM; β-galactosidase expression (P7.5k early/late promoter) in presence of Ara-C ([4]; THP-1, GLV-1h68 MOI 10, 1 nM-1 mM Ara-C, 24 hours, X-gal, visual assessment): equally robust in the presence or absence of Ara-C; effect on β-glucuronidase expression (P11k late promoter) ([4]; THP-1, GLV-1h68 MOI 10, 1 nM-1 mM Ara-C, 24 hours, X-gluc, visual assessment): dose-dependent inhibition; concentration at which β-glucuronidase expression was undetectable by eye (complete abrogation of viral late transcription) ([4]; THP-1, GLV-1h68 MOI 10, 24 hours, printed as 1 mM to 1 μM): ≥ 1 µM; β-galactosidase expression (P7.5k early/late promoter) in presence of Ara-C ([5]; GLV-1h68 MOI 10, 1 nM-1 mM Ara-C, 24 hours, X-gal, visual assessment): equally robust in the presence or absence of Ara-C; effect on β-glucuronidase expression (P11k late promoter) ([5]; GLV-1h68 MOI 10, 1 nM-1 mM Ara-C, 24 hours, X-gluc, visual assessment): dose-dependent inhibition; concentration at which late viral transcription, as measured by β-glucuronidase expression, was abrogated ([5]; GLV-1h68 MOI 10, 24 hours, 'as low as'): ≥ 100 nM; concentration at which reduction of MTT was abrogated [6]: ≥ 1 µM; concentration at which reduction of MTT was abrogated [7]: ≥ 1 µM; concentration at which reduction of MTT was abrogated [8]: ≥ 100 nM; β-galactosidase expression ([1]; THP-1, all concentrations less than the maximal concentration of the drug tested): unaffected; concentration at which limited inhibition of β-galactosidase expression was seen ([1]; THP-1, highest concentration of the drug tested): 1 mM
N.N.[Cl][Pt][Cl] [Cisplatin, cisplatin]	–	33	–	–	–	MIC MTT, qualifier in words ([2]; THP-1, line below the MIC MTT value): partial; MTT assay observation [2, 9]: cell death; MTT assay observation [2, 10]: only slight cell death
O=P1(N(CCCl)CCCl)NCCCO1 (stereo not drawn) [Cyclophosphamide, cyclophosphamide]	>100	>100	above 100 μM	–	above 100 μM	concentration at which β-galactosidase expression was inhibited ([1]; THP-1, Example 3): above 100 μM
COc1cccc2c1C(=O)c1c(O)c3c(c(O)c1C2=O)C[C@@](O)(C(C)=O)C[C@@H]3O[C@H]1C[C@H](N)[C@H](O)[C@H](C)O1 [Daunorubicin, daunorubicin]	0.01 (≈ 0.00528 µg/mL)	0.01 (≈ 0.00528 µg/mL)	–	>0.1	≥ 10 µM	concentration at which some inhibition of β-galactosidase expression was seen ([1]; THP-1, Example 3): greater than 100 nM; concentration at which dose-dependent inhibition of β-glucuronidase expression starts [1, 11]: ≥ 10 nM
CC(=O)O[C@@]12CO[C@@H]1C[C@H](O)[C@@]1(C)C(=O)[C@H](O)C3=C(C)[C@@H](OC(=O)[C@H](O)[C@@H](NC(=O)OC(C)(C)C)c4ccccc4)C[C@@](O)([C@@H](OC(=O)c4ccccc4)[C@H]21)C3(C)C [Docetaxel, docetaxel]	460 (≈ 372 µg/mL)	46 (≈ 37.2 µg/mL)	460 µM	>46	46 µM	concentration at which β-galactosidase expression was inhibited ([1]; THP-1, Example 3): ≥ 46 µM
COc1cc([C@@H]2c3cc4c(cc3[C@@H](O[C@@H]3O[C@@H]5CO[C@@H](C)O[C@H]5[C@H](O)[C@H]3O)[C@H]3COC(=O)[C@H]23)OCO4)cc(OC)c1O [Etopocide, etoposide]	5 (≈ 2.94 µg/mL)	5 (≈ 2.94 µg/mL)	–	>50	–	–
